Laboratory results published in patent US6355799B1, “Substituted benzene compounds, process for their preparation, and herbicidal and defoliant compositions containing them” (ISK Americas Incorporated, priority 1997, dated 2002).

Legend:
Assay type in all cases: in vivo
[1] = tested on: redroot pigweed (Amaranthus retroflexus, AMARE); assay: Pre-emerge test, greenhouse herbicide activity screening; conditions: pre-emerge, 14 days after application, rating scale 0-100
Outline: (§1)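 Rating: 0–100 visual injury, 14 DAA. Application: acetone, 187 l/ha, 15–1000 g ai/ha, flat-fan track sprayer with nozzle 40–45 cm above soil or canopy. Post-emerge runs used 0.25% v/v surfactant on 2–3 leaf plants.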

[2] = tested on: upland rice (Oryza sp., var. Tebonnet, RICE); assay: Pre-emerge test, crop safety; conditions: pre-emerge, 14 days after application, rating scale 0-100
Outline: (§2)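 Herbicidal damage is scored 0 (none) to 100 (complete plant death) two weeks after a simulated field spray. Rates span 15–1000 g ai/ha, delivered in acetone at 187 l/ha. For post-emergence treatments, plants have 2–3 leaves and the spray carries 0.25% v/v non-ionic surfactant.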

[3] = tested on: field corn (Zea mays L., var. Dekalb 535, CORN); assay: Pre-emerge test, crop safety; conditions: pre-emerge, 14 days after application, rating scale 0-100
Outline: as §2

[4] = tested on: green foxtail (Setaria viridis, SETVI); assay: Post-emerge test, greenhouse herbicide activity screening; conditions: post-emerge, 14 days after application, rating scale 0-100
Outline: as §1

[5] = tested on: ivyleaf morningglory (Ipomoea hederacea, IPOHE); assay: as above; conditions: post-emerge, 14 days after application, rating scale 0-100
Outline: as §1

[6] = tested on: velvetleaf (Abutilon theophrasti, ABUTH); assay: as above; conditions: post-emerge, 14 days after application, rating scale 0-100
Outline: as §1

[7] = tested on: large crabgrass (Digitaria sanguinalis, DIGSA); assay: as above; conditions: post-emerge, 14 days after application, rating scale 0-100
Outline: as §1

[8] = tested on: johnsongrass (Sorghum halepense, SORHA); assay: as above; conditions: post-emerge, 14 days after application, rating scale 0-100
Outline: as §1

[9] = tested on: common ragweed (Ambrosia artemisizfolia L., AMBEL); assay: as above; conditions: post-emerge, 14 days after application, rating scale 0-100
Outline: as §1

[10] = tested on: redroot pigweed (Amaranthus retroflexus, AMARE); assay: as above; conditions: post-emerge, 14 days after application
Outline: as §1

[11] = tested on: lambsquarters (Chenopodium album, CHEAL); assay: as above; conditions: post-emerge, 14 days after application, rating scale 0-100
Outline: as §1

[12] = tested on: barnyardgrass (Echinochloa crus-galli, ECHCG); assay: as above; conditions: post-emerge, 14 days after application, rating scale 0-100
Outline: as §1

[13] = tested on: sicklepod (Cassia obtusifolia, CASOB); assay: as above; conditions: post-emerge, 14 days after application, rating scale 0-100
Outline: as §1

[14] = tested on: upland rice (Oryza sp., var. Tebonnet, RICE); assay: Post-emerge test, crop safety; conditions: post-emerge, 14 days after application, rating scale 0-100
Outline: (§3)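 Compounds in acetone were track-sprayed at 15-1000 g ai/ha (187 l/ha) on sandy loam pots: pre-emerge one day after seeding, post-emerge at 2-3 leaf stage with 0.25% v/v non-ionic surfactant. Phytotoxicity was rated 14 days later on a 0 (no damage) to 100 (complete death) scale.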

[15] = tested on: field corn (Zea mays L., var. Dekalb 535, CORN); assay: Post-emerge test, crop safety; conditions: post-emerge, 14 days after application, rating scale 0-100
Outline: as §3

[16] = tested on: green foxtail (Setaria viridis, SETVI); assay: Pre-emerge test, greenhouse herbicide activity screening; conditions: pre-emerge, 14 days after application, rating scale 0-100
Outline: as §3

[17] = tested on: ivyleaf morningglory (Ipomoea hederacea, IPOHE); assay: as above; conditions: pre-emerge, 14 days after application, rating scale 0-100
Outline: as §3

[18] = tested on: velvetleaf (Abutilon theophrasti, ABUTH); assay: as above; conditions: pre-emerge, 14 days after application, rating scale 0-100
Outline: as §3

[19] = tested on: large crabgrass (Digitaria sanguinalis, DIGSA); assay: as above; conditions: pre-emerge, 14 days after application, rating scale 0-100
Outline: as §3

[20] = tested on: johnsongrass (Sorghum halepense, SORHA); assay: as above; conditions: pre-emerge, 14 days after application, rating scale 0-100
Outline: as §3

[21] = tested on: lambsquarters (Chenopodium album, CHEAL); assay: as above; conditions: pre-emerge, 14 days after application, rating scale 0-100
Outline: as §3

[22] = tested on: barnyardgrass (Echinochloa crus-galli, ECHCG); assay: as above; conditions: pre-emerge, 14 days after application, rating scale 0-100
Outline: as §3

[23] = tested on: sicklepod (Cassia obtusifolia, CASOB); assay: as above; conditions: pre-emerge, 14 days after application, rating scale 0-100
Outline: as §3

CCOC(=O)C(Cl)Cc1c(OC)c(Cl)cc(F)c1-c1nn(C)c(C(F)(F)F)c1Cl (stereo not shown) [14-56]
phytotoxicity rating AMARE ([1]; 63 g ai/ha): 100 | phytotoxicity rating AMARE ([1]; 250 g ai/ha): 100 | phytotoxicity rating RICE ([2]; 63 g ai/ha): 10 | phytotoxicity rating RICE ([2]; 250 g ai/ha): 10 | phytotoxicity rating CORN ([3]; 63 g ai/ha): 0 | phytotoxicity rating CORN ([3]; 250 g ai/ha): 0 | Post-emerge Herbicidal Activity SETVI (phytotoxicity rating) ([4]; 63 g ai/ha): 30 | Post-emerge Herbicidal Activity SETVI (phytotoxicity rating) ([4]; 250 g ai/ha): 70 | Post-emerge Herbicidal Activity IPOHE (phytotoxicity rating) ([5]; 63 g ai/ha): 100 | Post-emerge Herbicidal Activity IPOHE (phytotoxicity rating) ([5]; 250 g ai/ha): 100 | Post-emerge Herbicidal Activity ABUTH (phytotoxicity rating) ([6]; 63 g ai/ha): 70 | Post-emerge Herbicidal Activity ABUTH (phytotoxicity rating) ([6]; 250 g ai/ha): 100 | Post-emerge Herbicidal Activity DIGSA (phytotoxicity rating) ([7]; 63 g ai/ha): 10 | Post-emerge Herbicidal Activity DIGSA (phytotoxicity rating) ([7]; 250 g ai/ha): 50 | Post-emerge Herbicidal Activity SORHA (phytotoxicity rating) ([8]; 63 g ai/ha): 30 | Post-emerge Herbicidal Activity SORHA (phytotoxicity rating) ([8]; 250 g ai/ha): 70 | Post-emerge Herbicidal Activity AMBEL (phytotoxicity rating) ([9]; 63 g ai/ha): 90 | Post-emerge Herbicidal Activity AMBEL (phytotoxicity rating) ([9]; 250 g ai/ha): 80 | Post-emerge Herbicidal Activity AMARE (phytotoxicity rating) ([10]; 63 g ai/ha, rating scale 0-100 (0 no damage, 100 complete death)): 100 | Post-emerge Herbicidal Activity AMARE (phytotoxicity rating) ([10]; 250 g ai/ha, rating scale 0-100): 100 | Post-emerge Herbicidal Activity CHEAL (phytotoxicity rating) ([11]; 63 g ai/ha): 99 | Post-emerge Herbicidal Activity CHEAL (phytotoxicity rating) ([11]; 250 g ai/ha): 100 | Post-emerge Herbicidal Activity ECHCG (phytotoxicity rating) ([12]; 63 g ai/ha): 20 | Post-emerge Herbicidal Activity ECHCG (phytotoxicity rating) ([12]; 250 g ai/ha): 80 | Post-emerge Herbicidal Activity CASOB (phytotoxicity rating) ([13]; 63 g ai/ha): 30 | Post-emerge Herbicidal Activity CASOB (phytotoxicity rating) ([13]; 250 g ai/ha): 40 | Post-emerge Herbicidal Activity RICE (crop damage rating) ([14]; 63 g ai/ha): 0 | Post-emerge Herbicidal Activity RICE (crop damage rating) ([14]; 250 g ai/ha): 25 | Post-emerge Herbicidal Activity CORN (crop damage rating) ([15]; 63 g ai/ha): 10 | Post-emerge Herbicidal Activity CORN (crop damage rating) ([15]; 250 g ai/ha): 30 | phytotoxicity rating SETVI ([16]; 63 g ai/ha): 20 | phytotoxicity rating SETVI ([16]; 250 g ai/ha): 70 | phytotoxicity rating IPOHE ([17]; 63 g ai/ha): 0 | phytotoxicity rating IPOHE ([17]; 250 g ai/ha): 0 | phytotoxicity rating ABUTH ([18]; 63 g ai/ha): 30 | phytotoxicity rating ABUTH ([18]; 250 g ai/ha): 60 | phytotoxicity rating DIGSA ([19]; 63 g ai/ha): 30 | phytotoxicity rating DIGSA ([19]; 250 g ai/ha): 40 | phytotoxicity rating SORHA ([20]; 63 g ai/ha): 0 | phytotoxicity rating SORHA ([20]; 250 g ai/ha): 30 | phytotoxicity rating CHEAL ([21]; 63 g ai/ha): 80 | phytotoxicity rating CHEAL ([21]; 250 g ai/ha): 100 | phytotoxicity rating ECHCG ([22]; 63 g ai/ha): 0 | phytotoxicity rating ECHCG ([22]; 250 g ai/ha): 0 | phytotoxicity rating CASOB ([23]; 63 g ai/ha): 0 | phytotoxicity rating CASOB ([23]; 250 g ai/ha): 10
